Data set [1] can be described thus: Inhibition of PKA (unknown origin). Further details: species or system Homo sapiens.
In data set [2] the target is Rho-associated protein kinase 2 (Homo sapiens, UniProt O75116). The data set is described as follows: Inhibition of human recombinant 6-His-tagged ROCK2 expressed in baculovirus-infected Sf9 cells using LCB-AKRRRLSSLRA-NH2 as substrate after 25 mins by TR-FRET assay.
In another data set the target is T1, CYP1A2 (Homo sapiens, UniProt P05177).
T1 sequence (P05177 whole entry): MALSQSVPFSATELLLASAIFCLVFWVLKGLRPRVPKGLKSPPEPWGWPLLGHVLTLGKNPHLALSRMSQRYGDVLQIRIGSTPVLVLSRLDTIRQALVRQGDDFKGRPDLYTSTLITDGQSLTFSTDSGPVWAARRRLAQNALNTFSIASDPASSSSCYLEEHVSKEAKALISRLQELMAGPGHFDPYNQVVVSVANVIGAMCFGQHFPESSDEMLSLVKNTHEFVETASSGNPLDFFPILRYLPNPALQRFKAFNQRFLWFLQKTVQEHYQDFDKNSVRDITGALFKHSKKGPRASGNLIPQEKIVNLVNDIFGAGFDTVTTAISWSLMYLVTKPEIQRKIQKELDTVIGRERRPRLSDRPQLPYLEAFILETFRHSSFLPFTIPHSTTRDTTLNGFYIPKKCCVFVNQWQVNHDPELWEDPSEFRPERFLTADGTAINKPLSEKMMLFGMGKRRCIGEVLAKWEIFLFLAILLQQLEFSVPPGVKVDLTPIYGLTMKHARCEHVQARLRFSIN
The data set is described as follows: Inhibition of CYP1A2 (unknown origin) at 10 uM relative to control. In kind it is ADME.

Data set [3] concerns the target Serine/threonine-protein kinase MRCK alpha (Homo sapiens, UniProt Q5VT25). Put plainly: Inhibition of MRCKalpha (unknown origin).
For data set [4], the target named is Mitogen-activated protein kinase 14 (Homo sapiens, UniProt Q16539). Put plainly: Inhibition of p38alpha (unknown origin).
Data set [5] addresses Rho-associated protein kinase 1 (Homo sapiens, UniProt Q13464). Put plainly: Inhibition of ROCK1 (unknown origin).
In a further data set the target is CYP2D6 (Homo sapiens, UniProt P10635). The data set is described as follows: Inhibition of CYP2D6 (unknown origin) at 10 uM relative to control. In kind it is ADME.
Data set [6] is described as follows: Half life in human liver microsomes. In kind it is ADME, Microsome. In general terms: Liver microsomes are a subcellular fraction often used to study metabolism.
The target in data set [7] is Mitogen-activated protein kinase 8 (Homo sapiens, UniProt P45983). Put plainly: Inhibition of JNK1 (unknown origin).
In the next data set the target is CYP2C9 (Homo sapiens, UniProt P11712). Put plainly: Inhibition of CYP2C9 (unknown origin) at 10 uM relative to control. In kind it is ADME.
Data set [8] concerns the target Mitogen-activated protein kinase 10 (Homo sapiens, UniProt P53779). Put plainly: Inhibition of JNK3 (unknown origin).
The target of data set [9] is Mitogen-activated protein kinase 9 (Homo sapiens, UniProt P45984). The data set is described as follows: Inhibition of JNK2 (unknown origin).
A further data set deals with CYP3A4 (Homo sapiens, UniProt P08684). Put plainly: Inhibition of CYP3A4 (unknown origin) at 10 uM relative to control. In kind it is ADME.

pIC50: −log10 of the molar value.

The values that follow come from ChEMBL document CHEMBL2331421, “Amino acid derived quinazolines as Rock/PKA inhibitors” (Bioorg Med Chem Lett, 2013).

For orientation: pIC50 means −log10 of the IC50, conventionally taken in molar units. A word on the inhibition: it is the drop in the measured response relative to a control, in per cent. For orientation: half-life means how long it takes for the measured level to halve. A high value points to slow loss.

Mitogen-activated protein kinase 14, sequence (Q16539 whole entry): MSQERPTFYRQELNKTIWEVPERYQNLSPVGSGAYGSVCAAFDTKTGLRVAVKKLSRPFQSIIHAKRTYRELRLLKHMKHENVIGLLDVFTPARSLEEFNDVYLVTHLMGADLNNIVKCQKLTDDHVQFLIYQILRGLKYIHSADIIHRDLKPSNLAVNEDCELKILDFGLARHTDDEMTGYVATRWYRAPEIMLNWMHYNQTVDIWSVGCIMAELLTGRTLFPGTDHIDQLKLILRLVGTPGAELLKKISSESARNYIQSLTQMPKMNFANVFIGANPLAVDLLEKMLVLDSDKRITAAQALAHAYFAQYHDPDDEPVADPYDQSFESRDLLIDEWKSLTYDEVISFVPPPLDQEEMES
Mitogen-activated protein kinase 9, sequence (P45984 whole entry): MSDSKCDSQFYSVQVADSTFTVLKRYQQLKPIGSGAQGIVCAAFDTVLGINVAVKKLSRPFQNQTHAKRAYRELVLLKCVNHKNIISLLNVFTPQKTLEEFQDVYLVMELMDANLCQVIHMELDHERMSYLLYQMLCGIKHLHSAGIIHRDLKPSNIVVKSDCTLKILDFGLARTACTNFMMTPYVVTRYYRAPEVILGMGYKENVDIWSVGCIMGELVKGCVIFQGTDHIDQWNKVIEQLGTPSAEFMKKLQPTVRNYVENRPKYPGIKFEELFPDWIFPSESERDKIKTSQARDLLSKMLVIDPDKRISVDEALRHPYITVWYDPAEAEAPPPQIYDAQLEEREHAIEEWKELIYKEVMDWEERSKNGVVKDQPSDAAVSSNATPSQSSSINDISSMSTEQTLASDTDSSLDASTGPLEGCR
Serine/threonine-protein kinase MRCK alpha, sequence (Q5VT25 whole entry): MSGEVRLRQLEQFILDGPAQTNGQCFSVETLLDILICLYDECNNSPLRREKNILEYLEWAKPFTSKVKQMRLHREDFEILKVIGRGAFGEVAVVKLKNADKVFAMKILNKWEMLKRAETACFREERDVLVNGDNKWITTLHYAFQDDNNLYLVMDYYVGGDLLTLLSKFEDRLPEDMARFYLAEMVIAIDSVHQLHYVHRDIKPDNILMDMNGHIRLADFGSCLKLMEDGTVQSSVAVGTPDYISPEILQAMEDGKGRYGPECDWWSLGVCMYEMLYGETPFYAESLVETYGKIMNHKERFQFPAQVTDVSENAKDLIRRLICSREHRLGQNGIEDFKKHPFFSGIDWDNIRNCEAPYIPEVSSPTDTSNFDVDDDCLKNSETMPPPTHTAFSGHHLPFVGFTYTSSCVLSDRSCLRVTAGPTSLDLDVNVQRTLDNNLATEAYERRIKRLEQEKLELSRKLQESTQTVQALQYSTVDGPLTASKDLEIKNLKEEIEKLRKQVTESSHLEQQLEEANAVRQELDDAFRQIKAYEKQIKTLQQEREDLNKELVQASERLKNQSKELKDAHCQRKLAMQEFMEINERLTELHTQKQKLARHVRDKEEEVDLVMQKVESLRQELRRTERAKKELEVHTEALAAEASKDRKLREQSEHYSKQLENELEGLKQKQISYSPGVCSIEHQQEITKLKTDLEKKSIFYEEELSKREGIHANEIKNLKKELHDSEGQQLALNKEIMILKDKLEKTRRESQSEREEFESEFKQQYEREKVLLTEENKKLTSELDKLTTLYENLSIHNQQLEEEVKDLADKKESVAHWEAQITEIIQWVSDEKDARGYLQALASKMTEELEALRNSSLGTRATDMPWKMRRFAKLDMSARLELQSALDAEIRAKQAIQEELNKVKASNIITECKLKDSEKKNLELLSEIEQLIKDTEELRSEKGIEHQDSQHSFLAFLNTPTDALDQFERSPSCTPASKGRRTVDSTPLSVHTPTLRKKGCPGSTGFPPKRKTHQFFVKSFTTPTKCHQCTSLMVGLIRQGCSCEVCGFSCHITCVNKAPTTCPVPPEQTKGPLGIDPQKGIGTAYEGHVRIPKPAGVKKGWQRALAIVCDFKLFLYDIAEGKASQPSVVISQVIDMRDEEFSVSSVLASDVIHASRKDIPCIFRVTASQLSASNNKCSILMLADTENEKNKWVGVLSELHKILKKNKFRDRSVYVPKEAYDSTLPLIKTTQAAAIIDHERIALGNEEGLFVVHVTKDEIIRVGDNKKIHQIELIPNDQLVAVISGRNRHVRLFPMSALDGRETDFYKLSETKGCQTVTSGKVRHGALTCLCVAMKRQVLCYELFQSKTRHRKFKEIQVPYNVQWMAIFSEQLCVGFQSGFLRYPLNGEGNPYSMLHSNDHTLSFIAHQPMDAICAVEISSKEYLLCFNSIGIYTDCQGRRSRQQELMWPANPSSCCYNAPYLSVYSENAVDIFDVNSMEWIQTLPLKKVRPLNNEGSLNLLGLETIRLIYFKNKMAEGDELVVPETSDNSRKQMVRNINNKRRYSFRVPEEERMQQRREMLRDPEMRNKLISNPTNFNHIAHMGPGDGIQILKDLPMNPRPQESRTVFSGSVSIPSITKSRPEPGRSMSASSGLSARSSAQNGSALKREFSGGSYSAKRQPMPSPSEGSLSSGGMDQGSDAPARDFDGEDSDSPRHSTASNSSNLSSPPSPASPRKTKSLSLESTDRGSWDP
CYP2D6, sequence (P10635 whole entry): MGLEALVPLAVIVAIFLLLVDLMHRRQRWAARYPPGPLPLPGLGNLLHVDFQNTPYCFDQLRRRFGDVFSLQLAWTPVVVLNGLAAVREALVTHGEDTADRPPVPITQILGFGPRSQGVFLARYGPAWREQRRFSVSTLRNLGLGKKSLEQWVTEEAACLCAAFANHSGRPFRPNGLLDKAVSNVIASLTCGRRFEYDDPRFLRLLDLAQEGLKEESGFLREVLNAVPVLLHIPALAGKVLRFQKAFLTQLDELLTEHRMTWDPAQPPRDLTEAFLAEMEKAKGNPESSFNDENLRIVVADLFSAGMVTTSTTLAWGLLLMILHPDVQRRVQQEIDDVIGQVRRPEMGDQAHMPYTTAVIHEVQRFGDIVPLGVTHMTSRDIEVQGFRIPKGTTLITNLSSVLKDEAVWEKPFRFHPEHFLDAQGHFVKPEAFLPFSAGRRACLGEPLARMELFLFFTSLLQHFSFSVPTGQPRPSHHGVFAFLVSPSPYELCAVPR
Rho-associated protein kinase 2, sequence (O75116 whole entry): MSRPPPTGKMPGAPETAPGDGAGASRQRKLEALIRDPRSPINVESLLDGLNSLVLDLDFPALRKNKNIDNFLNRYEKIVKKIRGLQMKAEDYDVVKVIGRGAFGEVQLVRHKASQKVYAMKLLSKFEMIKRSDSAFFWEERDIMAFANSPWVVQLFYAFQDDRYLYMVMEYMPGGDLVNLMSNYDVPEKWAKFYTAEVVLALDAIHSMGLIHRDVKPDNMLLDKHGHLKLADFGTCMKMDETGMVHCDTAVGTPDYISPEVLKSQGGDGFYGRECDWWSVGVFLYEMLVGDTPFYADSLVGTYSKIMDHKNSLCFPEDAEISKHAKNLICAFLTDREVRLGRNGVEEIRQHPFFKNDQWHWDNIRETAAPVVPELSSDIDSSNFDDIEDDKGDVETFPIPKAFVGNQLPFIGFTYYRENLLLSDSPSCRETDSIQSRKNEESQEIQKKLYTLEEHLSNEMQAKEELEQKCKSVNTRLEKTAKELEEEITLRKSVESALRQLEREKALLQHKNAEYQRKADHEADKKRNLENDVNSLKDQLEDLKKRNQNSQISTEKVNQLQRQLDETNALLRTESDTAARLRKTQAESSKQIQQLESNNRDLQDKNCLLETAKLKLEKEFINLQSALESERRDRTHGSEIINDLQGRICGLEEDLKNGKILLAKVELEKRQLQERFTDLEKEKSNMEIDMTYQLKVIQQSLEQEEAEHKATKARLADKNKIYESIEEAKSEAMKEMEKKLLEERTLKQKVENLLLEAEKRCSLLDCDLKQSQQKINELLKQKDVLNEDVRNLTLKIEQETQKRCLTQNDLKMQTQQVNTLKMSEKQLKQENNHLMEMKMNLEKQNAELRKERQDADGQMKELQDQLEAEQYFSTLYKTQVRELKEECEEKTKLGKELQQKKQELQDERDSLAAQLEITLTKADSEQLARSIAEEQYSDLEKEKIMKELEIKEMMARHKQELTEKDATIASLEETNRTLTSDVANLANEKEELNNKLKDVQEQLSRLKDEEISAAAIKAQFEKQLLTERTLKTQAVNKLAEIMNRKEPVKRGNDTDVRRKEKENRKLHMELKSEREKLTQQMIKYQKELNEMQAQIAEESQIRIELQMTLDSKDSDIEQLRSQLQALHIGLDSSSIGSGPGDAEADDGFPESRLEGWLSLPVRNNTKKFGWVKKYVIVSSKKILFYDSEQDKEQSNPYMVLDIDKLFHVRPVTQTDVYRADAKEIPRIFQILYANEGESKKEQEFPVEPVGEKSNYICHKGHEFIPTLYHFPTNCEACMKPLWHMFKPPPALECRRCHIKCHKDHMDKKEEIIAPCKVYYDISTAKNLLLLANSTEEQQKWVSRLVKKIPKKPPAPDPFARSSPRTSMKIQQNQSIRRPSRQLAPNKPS
Mitogen-activated protein kinase 8, sequence (P45983 whole entry): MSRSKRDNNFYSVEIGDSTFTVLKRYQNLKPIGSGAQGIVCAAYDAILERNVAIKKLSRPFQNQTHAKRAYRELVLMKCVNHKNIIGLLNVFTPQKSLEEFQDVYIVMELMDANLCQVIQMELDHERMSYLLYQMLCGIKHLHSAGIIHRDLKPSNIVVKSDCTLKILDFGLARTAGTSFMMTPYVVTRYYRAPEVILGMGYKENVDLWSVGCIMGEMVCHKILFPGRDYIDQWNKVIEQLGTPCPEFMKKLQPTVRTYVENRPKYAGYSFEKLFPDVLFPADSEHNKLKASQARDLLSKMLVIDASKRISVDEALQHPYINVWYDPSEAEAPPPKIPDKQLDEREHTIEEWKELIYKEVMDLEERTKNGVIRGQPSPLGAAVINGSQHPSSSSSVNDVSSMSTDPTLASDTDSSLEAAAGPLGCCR

For the molecule `N[C@@H](Cc1ccccc1)c1nc2ccc(-c3cn[nH]c3)cc2c(=O)[nH]1`, the pIC50 in [1] was 8.15; in [2], 7.92.

Consider `CN(CCCO)c1nc([C@H](N)Cc2cccc(F)c2)nc2ccc(-c3cn[nH]c3)cc12`, for which, in data set [2], the pIC50 is 6.80.

Turning to `Nc1nccc(-c2ccc3nc([C@@H]4CNC[C@H]4c4ccccc4)[nH]c(=O)c3c2)n1`, the pIC50 in data set [1] was 8.00; in data set [2], 8.22.

Regarding `COc1cc(-c2cn[nH]c2)cc2c(=O)[nH]c(C(N)c3cccc(Cl)c3)nc12` (stereo not drawn), the pIC50 in [1] was 7.96; in data set [3], less than 6.00; in data set [4], less than 6.00; in data set [5] it was 8.10; in data set [7], less than 6.00; in [8], less than 6.00. The figures for the pIC50 in data set [2] and in data set [9] were 8.10 and less than 6.00, respectively. Besides, the inhibition at 10 µM on CYP1A2 was determined as 54%; against CYP2D6 it was 63%; at CYP2C9, 79%; against CYP3A4 it was 80%. In data set [6], this molecule returned a half-life of 0.85 h.

With `NCc1ccc(C(=O)NC(c2ccc(Cl)cc2)c2nc3ccc(-c4cn[nH]c4)cc3c(=O)[nH]2)cc1` (stereo not drawn), the pIC50 in [1] was 7.02; in data set [3] it was less than 6.00; in data set [4] it was less than 6.00; in data set [5], 7.66; in [7] it was less than 6.00; in data set [8], less than 6.00. Further, the pIC50 in [2] is 7.74; in [9], less than 6.00. The inhibition at 10 µM was found to be 90% against CYP1A2, 96% against CYP2D6, 94% at CYP2C9 and 63% against CYP3A4. In data set [6], this molecule yielded a half-life of 7 h.

Regarding `NCc1cccc(C(=O)NC(c2ccc(Cl)cc2)c2nc3ccc(-c4cn[nH]c4)cc3c(=O)[nH]2)c1` (stereo not drawn), the results for the pIC50 in [1] and in data set [2] were 7.55 and 7.70, respectively.

Regarding `N[C@H](Cc1cccc(F)c1)c1nc2ccc(-c3cn[nH]c3)cc2c(=O)[nH]1`, the pIC50 in [1] was 8.05; in [2], 8.00.

In the case of `COc1ccc([C@@H]2CN(Cc3ccccc3)C[C@H]2c2nc3ccc(-c4cn[nH]c4)cc3c(=O)[nH]2)cc1`, the values for the pIC50 in data set [1] and in [2] were 6.93 and 7.06, respectively.

With `COc1ccc(C(N)c2nc3ccc(-c4cn[nH]c4)cc3c(=O)[nH]2)cc1` (stereo not drawn), the pIC50 was 7.70 in data set [1]; less than 6.00 in data set [3]; less than 6.00 in data set [4]; 7.32 in data set [5]; less than 6.00 in data set [7]; less than 6.00 in [8]. Also, the values for the pIC50 in data set [2] and in [9] were 7.37 and less than 6.00, respectively. For the same molecule, the inhibition at 10 µM was -1% against CYP1A2, 36% at CYP2D6, 37% at CYP2C9 and 40% at CYP3A4. Also, the half-life in [6] stood at 1.07 h.

With `Fc1ccc([C@@H]2CNC[C@H]2c2nc(N3CCC3)c3cc(-c4cn[nH]c4)ccc3n2)cc1`, the pIC50 in [1] is 6.35; in data set [2] it was 7.15.

`O=C(Cc1cccnc1)N[C@H](Cc1ccc(Cl)cc1)c1nc2ccc(-c3cn[nH]c3)cc2c(=O)[nH]1`: in [2], the pIC50 was 6.62.

Consider `CN(CCO)c1nc([C@@H](N)Cc2cccc(F)c2)nc2ccc(-c3cn[nH]c3)cc12`, for which the pIC50 in [1] is 6.55; in data set [2], 7.57.

With `O=c1[nH]c([C@@H]2CNC[C@H]2c2ccccc2)nc2ccc(-c3ccncc3)cc12`, the results for the pIC50 in data set [1] and in [2] were 7.54 and 7.64, respectively.

`CCOc1ccc(C[C@H](N)c2nc3ccc(-c4cn[nH]c4)cc3c(=O)[nH]2)cc1`: the pIC50 in data set [1] is 7.22; in data set [2], 7.72.

For `O=c1[nH]c([C@@H]2CNC[C@H]2c2ccc(F)cc2)nc2ccc(-c3cn[nH]c3)cc12`, the pIC50 in data set [1] is 8.15; in [2], 8.70.

Turning to `C[N+]1(C)C[C@@H](c2ccccc2)[C@H](c2nc3ccc(-c4cn[nH]c4)cc3c(=O)[nH]2)C1`, the pIC50 is 7.64 in data set [1] and 8.40 in [2].

For `N[C@H](Cc1cccc(C(F)(F)F)c1)c1nc2ccc(-c3cn[nH]c3)cc2c(=O)[nH]1`, the results for the pIC50 in data set [1] and in data set [2] were 7.55 and 7.80, respectively.

Regarding `NCCC(=O)NC(c1ccc(Cl)cc1)c1nc2ccc(-c3cn[nH]c3)cc2c(=O)[nH]1` (stereo not drawn), the pIC50 in data set [1] was 7.68; in data set [2] it was 8.22.

On to `N[C@H](Cc1ccc(F)c(F)c1)c1nc2ccc(-c3cn[nH]c3)cc2c(=O)[nH]1`, for which the pIC50 in data set [1] was 7.92; in data set [2], 8.15.

Regarding `N[C@@H](Cc1ccccc1)c1nc2ccc(-c3ccncc3)cc2c(=O)[nH]1`, the pIC50 in data set [1] was 7.31; in data set [2], 7.28.

With `NC(c1ccc(Cl)cc1)c1nc2ccc(-c3cn[nH]c3)cc2c(=O)[nH]1` (stereo not drawn), the pIC50 was 8.05 in [1] and 8.00 in [2].

Take `CN(C)CCN(C)c1nc([C@H](N)Cc2cccc(F)c2)nc2ccc(-c3cn[nH]c3)cc12`: the figures for the pIC50 in data set [1] and in data set [2] were 5.94 and 6.20, respectively.

For the molecule `N[C@H](Cc1cccc(Cl)c1)c1nc2ccc(-c3cn[nH]c3)cc2c(=O)[nH]1`, the pIC50 is 8.22 in data set [1] and 7.89 in data set [2].

On to `COc1ccc(C[C@H](N)c2nc3ccc(-c4cn[nH]c4)cc3c(=O)[nH]2)cc1OC`, for which the results for the pIC50 in [1] and in data set [2] were 7.42 and 7.41, respectively.

For the molecule `CN(C)CCNc1nc([C@@H]2CNC[C@H]2c2ccc(F)cc2)nc2ccc(-c3cn[nH]c3)cc12`, the pIC50 is 6.05 in data set [1] and 6.43 in [2].

Regarding `O=c1[nH]c([C@@H]2CN(Cc3ccccc3)C[C@H]2c2ccccc2F)nc2ccc(-c3cn[nH]c3)cc12`, the pIC50 in [1] was 6.63; in data set [2], 7.31.

For the molecule `COc1ccc(C[C@H](N)c2nc3ccc(-c4cn[nH]c4)cc3c(=O)[nH]2)cc1`, the pIC50 in data set [1] was 8.10; in [3] it was less than 6.00; in data set [4], less than 6.00; in data set [5], 7.80; in data set [7], less than 6.00; in data set [8], less than 6.00. Besides, the figures for the pIC50 in [2] and in [9] were 8.40 and less than 6.00, respectively. The inhibition at 10 µM was found to be 10% at CYP1A2, 76% on CYP2D6, 52% against CYP2C9 and 53% against CYP3A4. Also, in data set [6], the half-life was 0.35 h.

Turning to `CN(C)c1nc([C@@H](N)Cc2cccc(F)c2)nc2ccc(-c3cn[nH]c3)cc12`, the pIC50 was 6.59 in [1] and 7.17 in data set [2].

With `CCN[C@H](Cc1ccc(Cl)cc1)c1nc2ccc(-c3cn[nH]c3)cc2c(=O)[nH]1`, the pIC50 in [1] is 7.77; in [2], 7.85.

In the case of `Cc1n[nH]cc1-c1ccc2nc([C@@H]3CNC[C@H]3c3ccccc3)[nH]c(=O)c2c1`, the pIC50 in data set [1] and in [2] was 8.15 in each case.

Turning to `COc1cc(-c2cn[nH]c2)cc2c(=O)[nH]c([C@@H](N)Cc3cccc(F)c3)nc12`, the pIC50 in data set [1] is 7.59; in data set [2] it was 8.10.

Take `N[C@H](Cc1ccc(F)cc1)c1nc2ccc(-c3cn[nH]c3)cc2c(=O)[nH]1`: the pIC50 in data set [1] is 7.77; in [3], less than 6.00; in [4] it was less than 6.00; in data set [5], 8.10; in data set [7] it was less than 6.00; in data set [8] it was less than 6.00. The pIC50 in data set [2] is 8.10; in data set [9], less than 6.00. The inhibition at 10 µM against CYP1A2 was 19%; at CYP2D6, 89%; on CYP2C9, 36%; at CYP3A4 it was 37%. In data set [6], this molecule showed a half-life of 1.08 h.

Take `O=c1[nH]c([C@@H]2CN(Cc3ccccc3)C[C@H]2c2cccc(F)c2)nc2ccc(-c3cn[nH]c3)cc12`: the pIC50 in data set [1] is 6.37; in [2], 6.65.

Regarding `COc1ccc(C(N)c2nc3ccc(-c4c[nH]nc4C)cc3c(=O)[nH]2)cc1` (stereo not drawn), the pIC50 in data set [2] is 7.01.

As for `CN(CCO)c1nc([C@H](N)Cc2cccc(F)c2)nc2ccc(-c3cn[nH]c3)cc12`, the pIC50 is 7.36 in data set [1] and 7.57 in [2].

For the molecule `COc1cc(-c2cn[nH]c2)cc2c(=O)[nH]c(C(N)c3ccc(Cl)cc3)nc12` (stereo not drawn), the pIC50 in data set [1] is 7.85; in data set [2], 8.05.

For `O=c1[nH]c([C@@H]2CNC[C@H]2c2ccc(C(F)(F)F)cc2)nc2ccc(-c3cn[nH]c3)cc12`, the pIC50 in [1] was 8.22; in data set [2], 8.70.

With `N[C@H](Cc1ccc(Cl)cc1)c1nc2ccc(-c3cn[nH]c3)cc2c(=O)[nH]1`, the pIC50 in data set [1] is 8.30; in data set [2], 8.40.
